Some results are limits rather than exact numbers.

We go through three compounds from patent US20200392150A1, “Diaryl-B-Lactam Compound and Preparation Method and Pharmaceutical Use Thereof” (Fudan University, priority 2016, published 2020).

For one series, the system named is tubulin in SKOV-3 cells. Briefly: Immunofluorescent analysis of tubulin morphology. The format is cell-based, human. The note with it: 24 h. As to the method: After treatment with diluent (0.2% DMSO) or tested compounds at indicated concentrations for 24 h, SKOV-3 cells were fixed with methanol, permeabilized with 0.1% Triton X-100 in PBS and blocked by goat serum. Then the cells were incubated with a-tubulin antibody at 4° C. overnight, followed by incubation with Alexa 488 labeled secondary antibody (Jackson ImmunoResearch) at RT for 1 h. After being stained with DAPI, cells were examined and photographed with a Leica SP5 co-focal fluorescence microscope.

A further series deals with Hela. Briefly: In vitro cell growth inhibition assay (MTT). The format is cell-based, human. The note with it: Hela human cervical cancer cell line, 48 h, MTT; read-out: IC50 Hela. Put shortly: (§1)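 SKOV3, A2780 or HeLa cells were seeded at 5000 per well, allowed to adhere overnight, then treated 48 h with compounds; 0.2% DMSO served as control. IC50 values came from growth inhibition rates.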

The next series deals with MDA-MB-231. Briefly: In vitro cell growth inhibition assay (MTT). The format is cell-based, human. The note with it: MDA-MB-231 human breast cancer cell line, 48 h, MTT; read-out: IC50 MDA-MB-231. In outline:
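IC50 values come from growth inhibition rates calculated from MTT absorbance at 540 nm. Compound exposure lasted 48 h on cells plated at 5000 per well.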

In another series the test system is A2780. Briefly: In vitro cell growth inhibition assay (MTT). The note with it: A2780 human ovarian cancer cell line, 48 h, MTT; read-out: IC50 A2780. The format is cell-based, human. In outline: as §1
In the next series the test system is SKOV3. Briefly: In vitro cell growth inhibition assay (MTT). It is filed as cell-based, human. The note with it: SK-OV-3; SKOV-3 human ovarian cancer cell line, 48 h, MTT; read-out: IC50 SKOV3. In outline: as §1
The next series relates to tubulin in Hela cells. Briefly: Immunoblotting analysis of polymerized/depolymerized tubulin. It is filed as cell-based, human. To be noted: 6 h. How it is done: After being treated with diluent (0.2% DMSO), tested compound, CA-4 or PTX for 6 h, Hela cells were lysed with microtubulestabilizing buffer, containing 100 mM PIPES, pH 6.8, 1 mM MgCl2, 2 mM EGTA, 0.5% NP-40, 2 M glycerol, 5 μM PTX and protease inhibitors cocktail (Roche), and the lysate was centrifuged at 15,000 rpm for 15 min. Supernatant containing depolymerized tubulin was carefully collected, whereas pellet (polymerized tubulin) was further dissolved in SDS-lysis buffer (Beyotime, China). Equal amounts of supernatant and dissolved pellet were subjected to immunoblotting analysis as described above using atubulin antibody (Proteintech).
On the technique in general: In western blotting, separated proteins are transferred to a membrane and probed.

Broadly, the IC50 is the concentration that gives 50% inhibition. Take `C=C1C(=O)N(c2cc(OC)c(OC)c(OC)c2)[C@H]1c1ccc(OC)c(O)c1` [Compound 1, (S)-4-(3-hydroxy-4-methoxyphenyl)-3-methylene-1-(3,4,5-trimethoxyphenyl)azetidin-2-one]: the “tubulin assembly (immunofluorescence)” value in the series on tubulin in SKOV-3 cells is “significantly inhibit tubulin aggregation”. In addition, the IC50 in the series on Hela came to 0.186 µM; in the series with MDA-MB-231, 0.234 µM; in the series on A2780 it was 0.143 µM; with SKOV3 it was 0.128 µM. The “polymerized tubulin (immunoblotting)” value in the series with tubulin in Hela cells was “significantly inhibit tubulin aggregation”.
Broadly, the melting point is the temperature, or range, at which the solid turns liquid. With `C=C1C(=O)N(c2ccc(OC)cc2)[C@H]1c1ccc(OC)c(O)c1` [Compound 52, (S)-1-(4-methoxyphenyl)-4-(3-hydroxy-4-methoxyphenyl)-3-methyleneazetidin-2-one], the melting point lay in the range of 180 to 181 °C. Moreover, the half-maximal inhibitory concentration (IC50) with Hela is more than 20 µM. Besides, the IC50 in the series with MDA-MB-231 was more than 20 µM. For the same compound, the half-inhibitory concentration (IC50) with A2780 was more than 20 µM. For the same compound, the 50% inhibitory concentration (IC50) with SKOV3 was more than 20 µM.
Compound `COc1ccc([C@H]2/C(=C/C[Si](C)(C)C)C(=O)N2c2cc(OC)c(OC)c(OC)c2)cc1O` [Compound 53, (S,Z)-4-(3-hydroxy-4-methoxyphenyl)-1-(3,4,5-trimethoxyphenyl)-3-(2-(trimethylsilyl)ethylidene)azetidin-2-one] gave a melting point of 67 to 69 °C. For the same compound, the IC50 with Hela is more than 10 µM. Further, in the series on MDA-MB-231, the IC50 was more than 10 µM. The IC50 in the series on A2780 was more than 10 µM. Also, the IC50 in the series on SKOV3 is more than 10 µM.
